Tests used:
[1] = system: MCF-7 cells; test: MTT cytotoxicity assay on MCF-7 cells; format: cell-based; settings: Homo sapiens, MCF7; for viability at 1.25 µM: MCF-7, 1.25 µM; for viability at 1.25 µM / viability at 2.5 µM / viability at 5 µM / viability at 10 µM / viability at 20 µM / viability at 40 µM / viability at 80 µM / viability at 160 µM: Table S2; for viability at 2.5 µM: MCF-7, 2.5 µM; for viability at 5 µM: MCF-7, 5 µM; for viability at 10 µM: MCF-7, 10 µM; for viability at 20 µM: MCF-7, 20 µM; for viability at 40 µM: MCF-7, 40 µM; for viability at 80 µM: MCF-7, 80 µM; for viability at 160 µM: MCF-7, 160 µM; for IC50: MTT, 24 h treatment, mean of three experiments ± SEM, read-out: IC50 (µM) MCF-7
Experimental: Cytotoxic activity of the synthesized compounds was evaluated against HepG-2 and MCF-7 cancer cell lines using the MTT assay. The tested cell lines were obtained from the American Type Culture Collection (ATCC, […], USA) through the Tissue Culture Unit, The Egyptian Organization for Biological Products and Vaccines (Vacsera, Giza, Egypt). Indirubin, chemicals, and solvents were purchased from Sigma-Aldrich (St. Louis, MO, USA). The cells were grown on RPMI-1640 medium supplemented with 10% inactivated fetal calf serum and 50 µg/mL gentamycin. The cells were maintained at 37 °C in a humidified atmosphere with 5% CO2 and were sub-cultured two to three times per week. For antitumor assays, the tumor cell lines were suspended in the medium at concentration 5 × 10^4 cell/well in Corning® 96-well tissue culture plates (Corning, Corning, NY, USA), then incubated for 24 h. The tested molecules were then added to 96-well plates (six replicates) to achieve six concentrations for each compound. Six vehicle controls with media or 0.5% DMSO were run for each 96-well plate as a control. After incubating for 24 h, the numbers of viable cells were determined by the MTT test. Briefly, the media was removed from the 96 well plate and replaced with 100 µL of fresh culture RPMI 1640 medium without phenol red then 10 µL of the 12 mM MTT stock solution (5 mg of MTT in 1 mL of PBS) to each well including the untreated controls. The 96-well plates were then incubated at 37 °C and 5% CO2 for 4 h. An 85 µL aliquot of the media was removed from the wells, and 50 µL of DMSO was added to each well, mixed thoroughly with the pipette, and incubated at 37 °C for 10 min. Then, the optical density was measured at 590 nm with the microplate reader (SunRise, TECAN, Inc., Morrisville, NC, USA) to determine the number of viable cells, and the percentage of viability was calculated as […], where ODt is the mean optical density of wells treated with the tested sample and ODc is the mean optical density of untreated cells. The relation between surviving cells and drug concentration was plotted to obtain the survival curve of each tumor cell line after treatment with the specified compound. […] Each concentration was repeated four times.

[2] = system: HepG-2 cells; test: DNA flow cytometry cell cycle analysis; format: cell-based, human; settings: HepG-2, compound at its IC50, 24 h
Experimental: The HepG-2 cells were then collected by trypsinization, washed with PBS, and fixed. After that, treated cells were stained using the Cycle Test Plus DNA Reagent Kit (BD Biosciences, San Jose, CA, USA) according to the manufacturer’s instructions. The percentage of cell cycle distribution was calculated using CELLQUEST software 5.1 (Becton Dickinson Immuno-cytometry Systems, San Jose, CA, USA) (Table S4).

[3] = system: Fas-L; test: ELISA of Fas-L in treated HepG-2 cells; format: cell-based, human; settings: for increase of Fas-L expression compared to untreated control: HepG-2, compound at its IC50, 24 h; for Concentration of Fas L: HepG-2, compound at its IC50, ± S.E.M, control 15.33±1.71
Experimental: (§1) HepG2 cells were cultured in RPMI 10% + 5%FBS penicillin/streptomycin and were incubated at a humidity 5% CO2 and maintained at 37 °C. […] HepG2 cells were cultured as a monolayer in T-25 flasks and were seeded to attain 30% confluency prior to treatment. The main 100 mM stock dissolved in DMSO was diluted with the cell culture medium in order to reach the previously determined IC50 concentration of each of the three preparations. After that, HepG2 cells were collected via trypsinization and centrifuged at 10,000 rpm. The pellet was then rinsed with PBS and lysed in RIPA lysis buffer at 4 °C for 45 min, then centrifuged at 14,000 rpm for 20 min to remove the cellular debris. Lysates were then collected and stored at […] for protein determination. The levels of p53, p21, Fas-L, Bax, Bcl-2, and caspase 3/7 were assessed using the human P53 ELISA kit (Catalog No. ABIN6962151), P21 ELISA kit (Catalog No. ABIN6966175), Human Apoptosis Ligand (FAS-L), Bax ELISA kit, Human Factor-Related. Bcl-2 ELISA kit ELISA kit, and caspase3/7 ELISA kit (Elabscience Biotechnology Co., Wuhan, Hubei, China). The procedure of the used kits was done according to the manufacturer’s instructions. Briefly, equal amounts of cell lysates were loaded and then probed with specific antibodies. The samples were measured at 450 nm in ROBONEK P2000 ELISA reader. The analysis was confirmed with three different sets of extracts. All experiments were done in triplicate (Tables S6–S9).

[4] = system: Bcl-2; test: ELISA of Bcl-2 in treated HepG-2 cells; format: cell-based, human; settings: HepG-2, compound at its IC50; ± S.E.M; control 360.90±31.71
Experimental: as §1, with “The analysis was confirmed with three different sets of extracts. All experiments were done in triplicate (Tables S6–S9).” left out

| SMILES | viability at 1.25 µM [1] | viability at 2.5 µM [1] | viability at 5 µM [1] | viability at 10 µM [1] | viability at 20 µM [1] | viability at 40 µM [1] | viability at 80 µM [1] | viability at 160 µM [1] | IC50 [1] | Cell cycle distribution (%) G0-G1 [2] | Cell cycle distribution (%) G2-M [2] | Cell cycle distribution (%) S [2] | Cell cycle distribution (%) sub-G0/G1 [2] | increase of Fas-L expression compared to untreated control [3] | Concentration of Fas L [3] | Concentration of Bcl-2 [4] |
| --- | --- | --- | --- | --- | --- | --- | --- | --- | --- | --- | --- | --- | --- | --- | --- | --- |
| O=C1Nc2ccc(Cl)cc2C1=Nc1ccc(-c2nc3ccccc3c(=O)[nH]2)cc1 [Compound 20, 2-[4-(5-Chloro-2-oxo-1,2-dihydro-indol-3-ylideneamino)-phenyl]-3H-quinazolin-4-one] | 92.4 ± 5.7% | 84.3 ± 4.8% | 76.7 ± 4.2% | 67.9 ± 3.4% | 47.1 ± 3% | 24.6 ± 1.9% | 7.77 ± 0.9% | 4.1 ± 0.1% | 5.28 ± 0.22 µM | 60.3% | 2.86% | 16.27% | 10.59% | 4.1 fold | 62.06 ± 4.62 pg/mL | 160.32 ± 10.82 pg/mL |
| O=C1Nc2ccc(Cl)cc2C1=Nc1ccc2nc[nH]c(=O)c2c1 [Compound 9, 6-(5-Chloro-2-oxo-1,2-dihydro-indol-3-ylideneamino)-3H-quinazolin-4-one] | 90.5 ± 7.8% | 72.8 ± 6.3% | 64.1 ± 4.5% | 49 ± 2% | 34.4 ± 0.2% | 18.2 ± 1% | 14.8 ± 1.3% | 8.7 ± 1.2% | 7.54 ± 0.71 µM | 67.16% | 20.75% | 32.03% | 13.82% | 5.7 fold | 86.11 ± 8.05 pg/mL | 90.15 ± 8.27 pg/mL |

Source: paper PMC11901902, “Design, Synthesis, and Cytotoxicity Evaluation of Novel Indolin-2-One Based Molecules on Hepatocellular Carcinoma HepG2 Cells as Protein Kinase Inhibitors” (Molecules, 2025)
